Literature values as cited in patent publication US20210330614A1, “PROCESS FOR MANUFACTURING PHENYLEPHRINE RESINATE PARTICLES; PHENYLEPHRINE RESINATE PARTICLES; AND USE OF PHENYLEPHRINE RESINATE PARTICLES IN PHARMACEUTICAL FORMULATIONS” (Johnson & Johnson Consumer Inc., priority 2014, published 2021).

Columns and labels:
[1] = therapeutic dose
[2] = 30 mg dose administered orally over eight hours

| Compound | excreted unchanged in the urine, % of dose [1] | metabolized to m-hydroxy-phenylglycol-sulfate, % of the dose [2] [%] | metabolized to m-hydroxymandelic acid, % of the dose [2] [%] | metabolized to phenylephrine-glucuronide, % of the dose [2] [%] | metabolized to phenylephrine-sulfate, % of the dose [2] [%] |
| --- | --- | --- | --- | --- | --- |
| CC(=O)Nc1ccc(O)cc1 [acetaminophen, Acetaminophen] | Less than 9% | – | – | – | – |
| CNC[C@H](O)c1cccc(O)c1.Cl [phenylephrine, (R)-1-(3-hydroxyphenyl)-2-methylaminoethanol] | – | 6 | 30 | 12 | 47 |
